Measured values reported in PubChem BioAssay (NCI).
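Exposure lasted 48 hours, with cells grown in 96-well plates and compounds tested at five concentrations. GI50 = concentration required for 50% inhibition of growth. TGI: concentration producing complete growth inhibition.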

Tests used:
Experiment in all cases: growth of human tumour cells (NCI), 48 h; in the data active = GI50 below about 0.43 µM; inactive = the rest
[1] = test system: UACC-62 melanoma
[2] = test system: MDA-MB-435
[3] = test system: UO-31 renal
[4] = test system: PC-3 prostate
[5] = test system: SK-MEL-5 melanoma
[6] = test system: HOP-62 NSCLC
[7] = test system: MCF7 breast
[8] = test system: HL-60(TB) leukemia
[9] = test system: SN12C renal
[10] = test system: 786-0 renal
[11] = test system: SNB-19 CNS
[12] = test system: K-562 leukemia
[13] = test system: SW-620 colon
[14] = test system: MALME-3M melanoma
[15] = test system: SK-MEL-28 melanoma
[16] = test system: NCI-H522 lung
[17] = test system: IGROV1 ovarian
[18] = test system: RPMI-8226 leukemia
[19] = test system: A498 renal
[20] = test system: U251 CNS
[21] = test system: OVCAR-3 ovarian
[22] = test system: DU-145 prostate
[23] = test system: SK-MEL-2 melanoma
[24] = test system: MDA-MB-231 breast
[25] = test system: SF-268 CNS
[26] = test system: TK-10 renal
[27] = test system: CCRF-CEM leukemia
[28] = test system: UACC-257 melanoma
[29] = test system: ACHN renal
[30] = test system: HOP-92 NSCLC
[31] = test system: SR leukemia
[32] = test system: SF-295 CNS
[33] = test system: SNB-75 CNS
[34] = test system: MDA-MB-468 breast
[35] = test system: RXF 393 renal
[36] = test system: M14 melanoma
[37] = test system: A549 NSCLC
[38] = test system: NCI-H226 lung
[39] = test system: EKVX NSCLC
[40] = test system: NCI-H460 lung
[41] = test system: HCT-116 colon
[42] = test system: OVCAR-8 ovarian
[43] = test system: SF-539 CNS
[44] = test system: HCC-2998 colon
[45] = test system: MOLT-4 leukemia
[46] = test system: BT-549 breast
[47] = test system: OVCAR-4 ovarian
[48] = test system: HCT-15 colon
[49] = test system: CAKI-1 renal
[50] = test system: NCI-H23 lung
[51] = test system: COLO 205 colon
[52] = test system: HT29 colon
[53] = test system: OVCAR-5 ovarian
[54] = test system: SK-OV-3 ovarian
[55] = test system: T-47D breast
[56] = test system: HS 578T breast
[57] = test system: LOX IMVI melanoma
[58] = test system: KM12 colon
[59] = test system: NCI/ADR-RES ovarian

Cc1ccc(-c2nc(C#N)c(S(=O)(=O)N3CCN(S(=O)(=O)c4ccccc4)CC3)o2)cc1
inactive: GI50 [1] > 100 µM | GI50 [2] > 100 µM | GI50 [3] > 100 µM | GI50 [4] > 100 µM | GI50 [5] > 100 µM | GI50 [6] > 100 µM | GI50 [7] > 100 µM | GI50 [8] > 100 µM | GI50 [9] > 100 µM | GI50 [10] > 100 µM | GI50 [11] > 100 µM | GI50 [12] > 100 µM | GI50 [13] > 100 µM | GI50 [14] > 100 µM | GI50 [15] > 100 µM | GI50 [16] > 100 µM | GI50 [17] > 100 µM | GI50 [18] > 100 µM | GI50 [19] > 100 µM | GI50 [20] > 100 µM | GI50 [21] > 100 µM | GI50 [22] > 100 µM | GI50 [23] > 100 µM | GI50 [24] > 100 µM | GI50 [25] > 100 µM | GI50 [26] > 100 µM | GI50 [27] > 100 µM | GI50 [28] > 100 µM | GI50 [29] > 100 µM | GI50 [30] > 100 µM | GI50 [31] > 100 µM | GI50 [32] > 100 µM | GI50 [33] > 100 µM | GI50 [34] > 100 µM | GI50 [35] > 100 µM | GI50 [36] > 100 µM | GI50 [37] > 100 µM | GI50 [38] > 100 µM | GI50 [39] > 100 µM | GI50 [40] > 100 µM | GI50 [41] > 100 µM | GI50 [42] > 100 µM | GI50 [43] > 100 µM | GI50 [44] > 100 µM | GI50 [45] > 100 µM | GI50 [46] > 100 µM | GI50 [47] > 100 µM | GI50 [48] > 100 µM | GI50 [49] > 100 µM | GI50 [50] > 100 µM | GI50 [51] > 100 µM | GI50 [52] > 100 µM | GI50 [53] > 100 µM | GI50 [54] > 100 µM | GI50 [55] > 100 µM | GI50 [56] > 100 µM | GI50 [57] > 100 µM | GI50 [58] > 100 µM | GI50 [59] > 100 µM
> 100 µM: TGI [1] | TGI [2] | TGI [3] | TGI [4] | TGI [5] | TGI [6] | TGI [7] | TGI [8] | TGI [9] | TGI [10] | TGI [11] | TGI [12] | TGI [13] | TGI [14] | TGI [15] | TGI [16] | TGI [17] | TGI [18] | TGI [19] | TGI [20] | TGI [21] | TGI [22] | TGI [23] | TGI [24] | TGI [25] | TGI [26] | TGI [27] | TGI [28] | TGI [29] | TGI [30] | TGI [31] | TGI [32] | TGI [33] | TGI [34] | TGI [35] | TGI [36] | TGI [37] | TGI [38] | TGI [39] | TGI [40] | TGI [41] | TGI [42] | TGI [43] | TGI [44] | TGI [45] | TGI [46] | TGI [47] | TGI [48] | TGI [49] | TGI [50] | TGI [51] | TGI [52] | TGI [53] | TGI [54] | TGI [55] | TGI [56] | TGI [57] | TGI [58] | TGI [59]

O=C(CSc1nnc(-c2ccc(-c3nc4ccc(Cl)cc4[nH]3)cc2)o1)Nc1ccc(Cl)cc1
5.47 µM: TGI [16]
7.65 µM: TGI [56]
18.9 µM: TGI [59]
13.1 µM: TGI [23]
18.4 µM: TGI [17]
15.8 µM: TGI [3]
4.31 µM: TGI [14]
3.15 µM: TGI [43]
6.63 µM: TGI [31]
19.8 µM: TGI [55]
3.69 µM: TGI [6]
3.97 µM: TGI [37]
13.3 µM: TGI [7]
5.23 µM: TGI [32]
8.01 µM: TGI [34]
4.03 µM: TGI [9]
10.6 µM: TGI [2] | TGI [21]
14.3 µM: TGI [45]
14.6 µM: TGI [53]
32.2 µM: TGI [26]
36 µM: TGI [51]
11 µM: TGI [27] | TGI [36]
12.7 µM: TGI [39]
6.23 µM: TGI [46]
4.07 µM: TGI [20]
11.8 µM: TGI [41]
12.5 µM: TGI [8]
3.33 µM: TGI [15]
5.16 µM: TGI [42]
10.9 µM: TGI [52]
14.1 µM: TGI [13]
11.7 µM: TGI [25]
11.2 µM: TGI [5]
5 µM: TGI [35]
11.6 µM: TGI [48]
4.36 µM: TGI [38]
15.6 µM: TGI [22]
2.8 µM: TGI [57]
3.86 µM: TGI [1]
8.66 µM: TGI [33]
4.9 µM: TGI [29]
8.47 µM: TGI [49]
19.3 µM: TGI [47]
3.49 µM: TGI [24]
20.8 µM: TGI [54]
10 µM: TGI [28]
30.6 µM: TGI [19]
5.57 µM: TGI [10]
5.37 µM: TGI [4]
4.74 µM: TGI [50]
4.29 µM: TGI [40]
inactive: GI50 [1] 1.7 µM | GI50 [2] 3.07 µM | GI50 [3] 3.59 µM | GI50 [4] 1.9 µM | GI50 [5] 2.92 µM | GI50 [6] 1.62 µM | GI50 [7] 2.82 µM | GI50 [8] 2.82 µM | GI50 [9] 1.72 µM | GI50 [10] 2.21 µM | GI50 [11] 3.45 µM | GI50 [12] 2.19 µM | GI50 [13] 2.94 µM | GI50 [14] 1.85 µM | GI50 [15] 1.53 µM | GI50 [16] 1.85 µM | GI50 [17] 4.66 µM | GI50 [18] 3.99 µM | GI50 [19] 16.2 µM | GI50 [20] 1.96 µM | GI50 [21] 3.18 µM | GI50 [22] 4.14 µM | GI50 [23] 3.02 µM | GI50 [24] 1.63 µM | GI50 [25] 3.04 µM | GI50 [26] 15.6 µM | GI50 [27] 2.59 µM | GI50 [28] 2.62 µM | GI50 [29] 1.91 µM | GI50 [30] 2.35 µM | GI50 [31] 1.85 µM | GI50 [32] 1.99 µM | GI50 [33] 2.33 µM | GI50 [34] 2.37 µM | GI50 [35] 1.93 µM | GI50 [36] 3.05 µM | GI50 [37] 1.8 µM | GI50 [38] 1.6 µM | GI50 [39] 2.7 µM | GI50 [40] 1.96 µM | GI50 [41] 2.92 µM | GI50 [42] 2.04 µM | GI50 [43] 1.67 µM | GI50 [44] 11.2 µM | GI50 [45] 2.81 µM | GI50 [46] 2.15 µM | GI50 [47] 4.48 µM | GI50 [48] 2.41 µM | GI50 [49] 2.43 µM | GI50 [50] 1.99 µM | GI50 [51] 11.8 µM | GI50 [52] 3.2 µM | GI50 [53] 3.11 µM | GI50 [54] 5.93 µM | GI50 [55] 2.8 µM | GI50 [56] 2.27 µM | GI50 [57] 1.4 µM | GI50 [58] 4.05 µM | GI50 [59] 4.01 µM
18.5 µM: TGI [58]
11.1 µM: TGI [12]
17.4 µM: TGI [18]
9.26 µM: TGI [30]
12.3 µM: TGI [11]
27.3 µM: TGI [44]
